Common to all, as to assay type: cell-based
Data set [1] deals with MDA-MB-231. Put plainly: MTT cytotoxicity assay, breast cancer cell line MDA-MB-231.
In data set [2] the test system is lung cancer cell line A549. Put plainly: Microscopy images of lung cancer cells A549. The settings on record: for cytotoxicity against lung cancer cells (microscopy): with and without copper(II) 10 μM, boosted by adding copper.
Data set [3] relates to breast cancer cell line MDA-MB-231. Briefly: Microscopy images of breast cancer cells MDA-MB-231. As to conditions: for concentration showing apoptotic signs (shrinkage, cell detachment, membrane blebbing): 24 hours of incubation.
For data set [4], the system named is H630 WT. Briefly: MTT cytotoxicity assay, colorectal cancer cell line H630 WT. As to conditions: 72 h. The procedure:
(§1) The H630 WT (passage 12-21) and H630 R10 (passage 4-13) cells were seeded in 96-well plates at seeding density of 1×10^4 cells/well in Dulbecco's modified Eagle's medium (DMEM) with 10% FBS, 1 mM sodium pyruvate, 2 mM L-glutamine and 0.1 mM non-essential amino acids. Cells were incubated at 37° C., 5% CO2 and 95% relative humidity. Cells were constantly exposed to different concentrations of the tested compound in combination with 10 μM of CuCl2 for 72 h and then subjected to a standard 3-(4,5-Dimethylthiazol-2-yl)-2,5-Diphenyltetrazolium bromide (MTT) assay. The experiments were carried out in triplicates and the IC50 values were calculated (see FIG. 2).
For orientation: Tetrazolium assays rely on reduction of a dye to a coloured formazan, in cell work by metabolically active cells.

Data set [5] deals with H630 R10. Put plainly: MTT cytotoxicity assay, colorectal cancer cell line H630 R10 (resistant to 5FU 10 μM). The settings on record: 72 h. The protocol:
as §1
5FU was purchased from Sigma Aldrich, Dorset, UK.

For data set [6], the system named is A549. Put plainly: MTT cytotoxicity assay, lung cancer cell line A549.
The test system of data set [7] is colorectal cancer cell line H630 WT. Put plainly: Microscopy images of colorectal cancer cells H630 WT. The settings on record: 500 μM, copper(II) 10 μM, 72 hours.
Where [8] appears, read: comparative agent as listed, no added metal named.
Where [9] appears, read: Homo sapiens, NCI-H630, with Cu (10 μM CuCl2).
[10] abbreviates: Homo sapiens, MDA-MB-231, 72 h, with Cu (10 μM CuCl2).
Where [11] appears, read: Homo sapiens, MDA-MB-231, 72 h, without copper(II).
Setting [12] is: Homo sapiens, A549, 72 h, with Cu (10 μM CuCl2).
Where [13] appears, read: Homo sapiens, NCI-H630, comparative agent as listed, no added metal named.

Take `CCN(CC)C(=S)SC1O[C@H](CO)[C@@H](O)[C@H](O)[C@H]1O` (stereo in doubt) [Ga-DDC, Galactosyl diethyldithiocarbamate]: 17.7 ± 8.2 µM corresponded to half-maximal inhibition in data set [1] (with Cu (10 μM CuCl2), 72 h) (IC50).

For the compound `O=CC[C@@H](O)[C@H](O)[C@H](O)CO` [2-deoxy-glucose, reference compound], the “cytotoxic effect (microscopy)” value in data set [2] (1 mM, with or without copper(II), 72 h) was “no cytotoxic effect”. Moreover, the “concentration showing slight toxicity effect (cells started to detach)” value in data set [2] (without copper(II), 24 hours) is 8 mM; in data set [3] (without copper(II), 24 hours) it was 8 mM. Further, in data set [3] (1000 μM, with copper(II) 10 μM, 24 hours), the features of apoptosis result is “no features of apoptosis”.

Consider `CCN(CC)C(=S)[S-].CCN(CC)C(=S)[S-].[Cu+2]` [(DDC)2Cu, Cu(II) bis(N,N-diethyldithiocarbamate) complex, reference compound], for which the IC50 – broadly, the concentration at which inhibition is half-maximal – in data set [4] (setting [8]) was found to be 5.9 ± 1.1 µM; in data set [5] (setting [8]), 4.9 ± 1.6 µM; in data set [6] (comparative agent as listed, no added metal named, 72 h), 3.6 ± 0.7 µM.

`CCN(CC)C(=S)SC1OC(CO)C(O)C(O)C1NC(C)=O` (stereo not shown) [AG-DDC, 2-N-acetyl-glycosylamine diethyldithiocarbamate]: in data set [4] (setting [9]), the half-inhibitory concentration (IC50) was 5.8 ± 1.2 µM.

Regarding `CCN(CC)C(=S)SC1CC(O)C(O)C(CO)O1` (stereo not shown) [DG-DDC, 2-Deoxy-glycosyl diethyldithiocarbamate], the “cytotoxicity against lung cancer cells (microscopy)” value in data set [2] (72 h) is listed as “cytotoxic”. For the same compound, the “toxic effect compared to glycosyl diethyldithiocarbamate at similar concentrations” value was “more toxic effect” in data set [2] (without copper(II), 24 hours) and “more toxic effect” in data set [3] (without copper(II), 24 hours). The 50% inhibitory concentration (IC50) in data set [1] (setting [10]) came to 3.62 ± 0.22 µM; in data set [1] (setting [11]), 2060 ± 54.7 µM; in data set [4] (setting [9]), 5.2 ± 1.7 µM; in data set [5] (setting [9]) it was 5.3 ± 0.9 µM; in data set [6] (setting [12]), 2.79 ± 0.25 µM; in data set [6] (Homo sapiens, A549, 72 h, with Zn (ZnCl2 10 μM)), 49.6 ± 18.6 µM. In addition, in data set [3] (with copper(II) 10 μM), the “concentration showing apoptotic signs (shrinkage, cell detachment, membrane blebbing)” value is 25 µM. Besides, the “observation in cells (microscopy)” value in data set [7] is recorded as “Cu(II) bis(N,N-diethyldithiocarbamate) complex crystals”.

Compound `CCN(CC)C(=S)SSC(=S)N(CC)CC` [DS, disulfiram, reference compound] showed an IC50 in data set [1] (setting [11]) of over 8000 µM.

Turning to `O=c1[nH]cc(F)c(=O)[nH]1` [Example 5FU, fluorouracil, reference compound], the concentration for half-maximal inhibition (IC50) in data set [4] (setting [13]) came out at 4.6 ± 1.6 µM; in data set [5] (setting [13]), 462 ± 8 µM.

As to `CCN(CC)C(=S)SC1O[C@H](CO)[C@@H](O)[C@H](O)[C@H]1O` (stereo partly shown) [G-DDC, Glycosyl diethyldithiocarbamate], the “cytotoxicity against lung cancer cells (microscopy)” value in data set [2] (72 h) is recorded as “cytotoxic”. The “concentration showing signs of apoptosis (shrinkage, cell detachment)” value in data set [2] (without copper(II), 24 hours) was found to be 8 mM; in data set [3] (without copper(II), 24 hours) it was 8 mM. Further, the “concentration showing slight toxicity effect (cells started to detach)” value is 4 mM in data set [2] (without copper(II), 24 hours) and 4 mM in data set [3] (without copper(II), 24 hours). Also, the IC50 in data set [1] (setting [11]) is 2180 ± 356 µM; in data set [1] (with Cu (10 μM CuCl2), 72 h) it was 348 ± 44.7 µM; in data set [4] (setting [9]), 127 ± 13.2 µM; in data set [6] (setting [12]), 95.9 ± 21.3 µM. For the same compound, the “concentration showing apoptotic signs (shrinkage, cell detachment, membrane blebbing)” value in data set [3] (with copper(II) 10 μM) turned out to be 250 µM.

Consider `CCN(CC)C(=S)SC1O[C@H](CO)[C@@H](O[C@@H]2O[C@H](CO)[C@H](O)[C@H](O)[C@H]2O)[C@H](O)[C@H]1O` (stereo partly shown) [La-DDC, Lactosyl diethyldithiocarbamate], for which half-maximal inhibition in data set [1] (setting [10]) (IC50) was put at 89.7 ± 12.6 µM.

The compound `CCN(CC)C(=S)SC1O[C@H](CO)[C@@H](O)[C@H](O)[C@@H]1O` (stereo partly shown) [Ma-DDC, Mannosyl diethyldithiocarbamate] had a 50% inhibitory concentration (IC50) in data set [1] (setting [10]) of 78.6 ± 12.6 µM.

On to `CCN(CC)C(=S)SC1O[C@H](COC(C)=O)[C@@H](OC(C)=O)[C@H](OC(C)=O)[C@H]1OC(C)=O` (stereo partly drawn) [Tetra-DDC, β-D-glucopyranose, 1-thio-, 2,3,4,6-tetraacetate 1-(N,N-diethylcarbamodithioate)], for which half-maximal inhibition in data set [6] (setting [12]) (IC50) was put at 53.4 ± 11.5 µM.

For the compound `CCN(CC)C(=S)SC1OC[C@@H](O)[C@H](O)[C@H]1O` (stereo partly shown) [XY-DDC, Xylosyl diethyldithiocarbamate], the IC50 in data set [4] (setting [9]) is 6.9 ± 2.6 µM.
